Measured values from PubChem BioAssay AID248 (DTP/NCI, 2004).
Several values for one entry are separate records, joined by “and”; a condition that tells them apart may be missing. Equal values may be shown once. Toxic doses and inconclusive results are not listed. Cut-off read from the data, not from the text of the source: active = T/C of 150% or more; inactive = T/C below 125%.

Tested on: L1210 leukemia ip in BDF1 mice, survival T/C
Assay: NCI In Vivo Anticancer Drug Screen. Data for tumor model L1210 Leukemia (intraperitoneal) in B6D2F1 (BDF1) mice
Details: endpoint: mean survival time, higher = longer survival
Summary of the method: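 Tumor cells were implanted, animals were treated, and survival was followed. The result divides the treated measurement by the vehicle-control measurement.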

[1] = dose: 100.0 mg/kg/injection, schedule: Q04DX003 (ip), vehicle: Klucel (hydroxypropylcellulose) (HPC)
[2] = dose: 200.0 mg/kg/injection, schedule: Q04DX003 (ip), vehicle: Klucel (hydroxypropylcellulose) (HPC)
[3] = dose: 25.0 mg/kg/injection, schedule: Q01DX009 (ip), vehicle: Klucel (hydroxypropylcellulose) (HPC)
[4] = dose: 50.0 mg/kg/injection, schedule: Q01DX009 (ip), vehicle: Klucel (hydroxypropylcellulose) (HPC)
[5] = dose: 100.0 mg/kg/injection, schedule: Q01DX009 (ip), vehicle: Klucel (hydroxypropylcellulose) (HPC)
[6] = dose: 200.0 mg/kg/injection, schedule: Q01DX009 (ip), vehicle: Klucel (hydroxypropylcellulose) (HPC)
[7] = dose: 100.0 mg/kg/injection, schedule: Q04DX002 (ip), vehicle: Klucel (hydroxypropylcellulose) (HPC)
[8] = dose: 200.0 mg/kg/injection, schedule: Q04DX002 (ip), vehicle: Klucel (hydroxypropylcellulose) (HPC)
[9] = dose: 400.0 mg/kg/injection, schedule: Q04DX002 (ip), vehicle: Klucel (hydroxypropylcellulose) (HPC)
[10] = dose: 100.0 mg/kg/injection, schedule: Q04DX003 (ip), vehicle: saline with Tween-80
[11] = dose: 200.0 mg/kg/injection, schedule: Q04DX003 (ip), vehicle: saline with Tween-80
[12] = dose: 100.0 mg/kg/injection, schedule: Q01DX009 (ip), vehicle: saline with Tween-80
[13] = dose: 100.0 mg/kg/injection, schedule: Q04DX003 (ip), vehicle: saline
[14] = dose: 200.0 mg/kg/injection, schedule: Q01DX009 (ip), vehicle: saline with Tween-80
[15] = dose: 200.0 mg/kg/injection, schedule: Q04DX003 (ip), vehicle: saline
[16] = dose: 400.0 mg/kg/injection, schedule: Q04DX003 (ip), vehicle: saline
[17] = dose: 400.0 mg/kg/injection, schedule: Q04DX003 (ip), vehicle: saline with Tween-80
[18] = dose: 100.0 mg/kg/injection, schedule: Q01DX001 (ip), vehicle: Klucel (hydroxypropylcellulose) (HPC)
[19] = dose: 200.0 mg/kg/injection, schedule: Q01DX001 (ip), vehicle: Klucel (hydroxypropylcellulose) (HPC)
[20] = dose: 400.0 mg/kg/injection, schedule: Q01DX001 (ip), vehicle: Klucel (hydroxypropylcellulose) (HPC)
[21] = dose: 100.0 mg/kg/injection, schedule: Q01DX009 (ip), vehicle: saline
[22] = dose: 200.0 mg/kg/injection, schedule: Q01DX009 (ip), vehicle: saline
[23] = dose: 400.0 mg/kg/injection, schedule: Q01DX009 (ip), vehicle: saline
[24] = dose: 400.0 mg/kg/injection, schedule: Q01DX009 (ip), vehicle: saline with Tween-80

Measured: T/C

O=C1ON(c2ccccc2)C(c2ccccc2)N1c1ccc([N+](=O)[O-])cc1 (centres undefined)
inactive: dose: 50.0 mg/kg/injection, schedule: Q01DX001 (ip), vehicle: saline 106 % of control | dose: 100.0 mg/kg/injection, schedule: Q01DX001 (ip), vehicle: saline 114 % of control | dose: 200.0 mg/kg/injection, schedule: Q01DX001 (ip), vehicle: saline 100 % of control | dose: 400.0 mg/kg/injection, schedule: Q01DX001 (ip), vehicle: saline 112 % of control

O=[N+]([O-])c1ccc(/C=C/c2ncc[nH]2)o1
inactive: [1] 92 % of control | [2] 92 % of control

O=C(Nc1cc(C(F)(F)F)ccc1Cl)Oc1ccc(Cl)cc1Cc1ccccc1
inactive: [3] 93 % of control | [4] 88 % of control | [5] 101 % of control and 86 % of control and 88 % of control

CC(=O)n1ncc2ccc(N)cc21
inactive: dose: 25.0 mg/kg/injection, schedule: Q01DX009 (ip), vehicle: water 89 % of control | dose: 50.0 mg/kg/injection, schedule: Q01DX009 (ip), vehicle: water 101 % of control | dose: 100.0 mg/kg/injection, schedule: Q01DX009 (ip), vehicle: water 96 % of control | dose: 100.0 mg/kg/injection, schedule: Q04DX003 (ip), vehicle: water 100 % of control | dose: 200.0 mg/kg/injection, schedule: Q04DX003 (ip), vehicle: water 96 % of control

CCc1ccccc1NC(=O)Nc1ccc(OC)cc1
inactive: [3] 90 % of control | [4] 95 % of control | [5] 93 % of control | [1] 94 % of control | [6] 86 % of control | [2] 91 % of control | dose: 400.0 mg/kg/injection, schedule: Q04DX003 (ip), vehicle: Klucel (hydroxypropylcellulose) (HPC) 96 % of control

CCOC(=O)C(Cc1c[nH]c2ccccc12)NC(C)=O (centres undefined)
inactive: [7] 106 % of control | [8] 100 % of control | [9] 95 % of control

O=C(NCCCCc1ccccc1)c1ccc([N+](=O)[O-])s1
inactive: dose: 50.0 mg/kg/injection, schedule: Q01DX005 (ip), vehicle: water 94 % of control | dose: 100.0 mg/kg/injection, schedule: Q01DX005 (ip), vehicle: water 87 % of control | dose: 200.0 mg/kg/injection, schedule: Q01DX005 (ip), vehicle: water 94 % of control | dose: 400.0 mg/kg/injection, schedule: Q01DX005 (ip), vehicle: water 94 % of control

O=C(COc1ccc(Cl)cc1Cl)NCCBr
inactive: [5] 91 % of control | [6] 92 % of control | dose: 400.0 mg/kg/injection, schedule: Q01DX009 (ip), vehicle: Klucel (hydroxypropylcellulose) (HPC) 96 % of control

CCOC(=O)C[P+](c1ccc(OC)cc1)(c1ccc(OC)cc1)c1ccc(OC)cc1
inactive: dose: 30.0 mg/kg/injection, schedule: Q01DX001 (ip), vehicle: carboxymethylcellulose (CMC) 90 % of control

CC(=O)OCC(=O)[C@@]1(O)[C@H](C)C[C@H]2[C@@H]3C=C(C)C4=Cc5c(cnn5-c5ccc(F)cc5)C[C@]4(C)[C@H]3[C@@H](O)C[C@@]21C
inactive: dose: 0.62 mg/kg/injection, schedule: Q01DX015 (sc), vehicle: steriod suspending solution 120 % of control | dose: 1.25 mg/kg/injection, schedule: Q01DX015 (sc), vehicle: steriod suspending solution 117 % of control | dose: 2.5 mg/kg/injection, schedule: Q01DX015 (sc), vehicle: steriod suspending solution 102 % of control | dose: 5.0 mg/kg/injection, schedule: Q01DX015 (sc), vehicle: steriod suspending solution 117 % of control and 123 % of control | dose: 6.25 mg/kg/injection, schedule: Q01DX009 (sc), vehicle: steriod suspending solution 100 % of control | dose: 10.0 mg/kg/injection, schedule: Q01DX015 (sc), vehicle: steriod suspending solution 111 % of control | dose: 20.0 mg/kg/injection, schedule: Q01DX015 (sc), vehicle: steriod suspending solution 103 % of control | dose: 40.0 mg/kg/injection, schedule: Q01DX015 (sc), vehicle: steriod suspending solution 101 % of control | dose: 50.0 mg/kg/injection, schedule: Q04DX003 (sc), vehicle: steriod suspending solution 110 % of control | dose: 100.0 mg/kg/injection, schedule: Q01DX001 (ip), vehicle: steriod suspending solution 98 % of control | dose: 100.0 mg/kg/injection, schedule: Q04DX003 (sc), vehicle: steriod suspending solution 108 % of control | dose: 160.0 mg/kg/injection, schedule: Q01DX015 (sc), vehicle: steriod suspending solution 91 % of control | dose: 200.0 mg/kg/injection, schedule: Q01DX001 (ip), vehicle: steriod suspending solution 91 % of control | dose: 200.0 mg/kg/injection, schedule: Q04DX003 (sc), vehicle: steriod suspending solution 103 % of control

Brc1ccc(Nc2c3ccccc3nc3ccccc23)cc1
inactive: [10] 97 % of control | [11] 103 % of control

CC1=CC(=O)C(C(O)(C(F)(F)Cl)C(F)(F)Cl)C(C)(C)C1 (centres undefined) (tested in a mixture with another compound)
inactive: [12] 98 % of control | [13] 93 % of control | [14] 102 % of control | [15] 98 % of control | [16] 104 % of control

c1ccc2c(c1)ccc1c3ccccc3[nH]c21
inactive: [10] 93 % of control | [11] 105 % of control | [17] 96 % of control

O=S(=O)(Nc1ccc(C(F)(F)F)cc1)c1ccc(C(F)(F)F)cc1
inactive: [1] 95 % of control | [2] 92 % of control

CC(=O)OC1CCC2(C)C(=CCC3C2CCC2(C)C3CC3C(c4ccccc4)=NN(c4ccccc4)C32C#N)C1 (centres undefined)
inactive: [7] 103 % of control | [8] 92 % of control | [9] 98 % of control

CC(=O)Nc1ccc(S(=O)(=O)CO)cc1
inactive: [18] 102 % of control | [19] 102 % of control | [20] 102 % of control

CC1C(c2ccccc2)N1P(=O)(c1ccccc1)c1ccccc1 (centres undefined)
inactive: dose: 100.0 mg/kg/injection, schedule: Q04DX003 (sc), vehicle: carboxymethylcellulose (CMC) 102 % of control | dose: 200.0 mg/kg/injection, schedule: Q04DX003 (sc), vehicle: carboxymethylcellulose (CMC) 104 % of control | dose: 400.0 mg/kg/injection, schedule: Q04DX003 (sc), vehicle: carboxymethylcellulose (CMC) 98 % of control

O=C(CC(O)(C(F)(F)F)C(F)(F)F)c1ccccc1Cl
inactive: [10] 97 % of control | [11] 101 % of control | [17] 101 % of control

CCCCCCCCN1C(=O)C2C(C1=O)C1(Cl)C(Cl)=C(Cl)C2(Cl)C1(Cl)Cl (centres undefined)
inactive: [21] 95 % of control | [22] 97 % of control | [23] 93 % of control

Cc1ccc(S(=O)(=O)N/N=C/c2cccs2)cc1
inactive: [12] 90 % of control | [10] 98 % of control | [14] 88 % of control | [11] 98 % of control | [24] 91 % of control | [17] 109 % of control

NC(=O)C1CN1Cc1ccccc1 (centres undefined)
inactive: [12] 97 % of control | [14] 95 % of control | [24] 89 % of control

CCCCCCCCCCCCCCCCCC/C(CC)=N/Nc1ccc([N+](=O)[O-])cc1[N+](=O)[O-]
inactive: [18] 101 % of control | [19] 103 % of control | [20] 97 % of control

O=C1C2C3CC4C2C(=O)C2C1C3C42 (centres undefined)
inactive: dose: 75.0 mg/kg/injection, schedule: Q01DX001 (ip), vehicle: other 101 % of control | [21] 97 % of control | [13] 94 % of control | dose: 150.0 mg/kg/injection, schedule: Q01DX001 (ip), vehicle: other 101 % of control | [22] 94 % of control | [15] 104 % of control | dose: 300.0 mg/kg/injection, schedule: Q01DX001 (ip), vehicle: other 93 % of control | [23] 104 % of control | [16] 91 % of control
